Publication PMC9154810, “Selective inhibition of carbonic anhydrase IX by sulphonylated 1,2,3-triazole incorporated benzenesulphonamides capable of inducing apoptosis” (Journal of Enzyme Inhibition and Medicinal Chemistry, 2022)
Where two headings read alike, the source gives them in different places.

Legend:
hCA I = hCA I (Homo sapiens, UniProt P00915); test: stopped-flow CO2 hydrase assay, hCA I
Description: (§2) An Sx.18Mv-R Applied Photophysics (Oxford, UK) stopped-flow instrument was used to assay the catalytic activity of various CA isozymes for CO2 hydration reaction.[21]

hCA IV = hCA IV (Homo sapiens, UniProt P22748); test: stopped-flow CO2 hydrase assay, hCA IV
Description: as §2

[1] = MTT assay, cell viability; assay type: cell-based; details: goat (Capra hircus), primary goat testicular cells, mean ± SEM, read-out: percent cell viability
Description: (§1) Goat (Capra hircus) testicular tissues were procured from slaughterhouses of Chandigarh (30°43′ N, 76°12′ E) and around Kurukshetra (29°6′ N, 76°50′ E) in 0.9% normal saline at 4 °C. The testicular cells/tissues were cultured in vitro in media-TCM199 and exposed to 10 µM concentration of given compounds for 6 h in a CO2 incubator with 5% CO2 and 95% humidity at 38 °C temperature.[22]^,[23]
Testicular cells were cultured in 96-well plates. Wells for blank control were without any cells and contained MTT [3-(4,5-dimethylthiazol-2-yl)-2,5-diphenyl-tetrazolium-bromide)], culture medium, and DMSO. The remaining wells were seeded with testicular cells, which were treated with given compounds at 10 µM concentration for 6 h. Post treatment, 10 µL of MTT stock solution was added to each well, and the reaction mixture was incubated for 2 h. After that 200 µL of DMSO was added in each well, followed by shaking for 10 min. Absorbance of reaction mixture was taken at 470 nm.

hCA IX = hCA IX (Homo sapiens, UniProt Q16790); test: stopped-flow CO2 hydrase assay, hCA IX; details: for Selectivity index I/IX: ratio KI hCA I / KI hCA IX; for Selectivity index II/IX: ratio KI hCA II / KI hCA IX
Description: as §2

testicular cells = test: EB/AO differential staining, apoptosis detection and quantification; assay type: cell-based, Goat (Capra hircus); details: 10 µM, 6 h, mean ± SEM; control 7.33 ± 0.33
Description: as §1
Ethidium bromide and acridine orange (EB/AO) staining was used to determine the cyto-genotoxic nature of given compounds in testicular cells.[25] Briefly, the testicular cell suspension prepared from the treated testicular tissue was mixed with equal volume of EB/AO differential stain on a glass slide and covered with a coverslip. Observation and quantification of apoptotic cells were done with fluorescence microscope (Olympus, Japan) using filters of 500–525 nm. Cells appearing bright green were marked as normal healthy cells, while cells displaying orange-red fluorescence were marked as apoptotic.

hCA II = hCA II (Homo sapiens, UniProt P00918); test: stopped-flow CO2 hydrase assay, hCA II
Description: as §2

[2] = mean from three assays, stopped-flow technique, errors ± 5–10%

Chain of hCA I (P00915 whole entry): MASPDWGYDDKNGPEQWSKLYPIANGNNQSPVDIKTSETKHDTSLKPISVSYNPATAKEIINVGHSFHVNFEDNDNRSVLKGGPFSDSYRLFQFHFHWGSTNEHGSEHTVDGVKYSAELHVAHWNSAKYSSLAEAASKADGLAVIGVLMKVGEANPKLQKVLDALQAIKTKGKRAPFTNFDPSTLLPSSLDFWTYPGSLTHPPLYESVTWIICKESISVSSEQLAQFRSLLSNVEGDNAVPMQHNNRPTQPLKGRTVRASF
Chain of hCA IV (P22748 19-312): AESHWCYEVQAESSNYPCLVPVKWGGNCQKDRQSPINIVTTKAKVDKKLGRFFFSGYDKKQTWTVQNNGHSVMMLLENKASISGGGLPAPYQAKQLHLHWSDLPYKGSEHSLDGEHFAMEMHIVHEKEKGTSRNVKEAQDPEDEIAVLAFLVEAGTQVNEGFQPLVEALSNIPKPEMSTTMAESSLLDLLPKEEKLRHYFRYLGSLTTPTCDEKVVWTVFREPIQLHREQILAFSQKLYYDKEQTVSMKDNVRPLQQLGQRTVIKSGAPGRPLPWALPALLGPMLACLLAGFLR

NS(=O)(=O)c1cccc(-n2nnc(S(=O)(=O)c3ccccc3)c2-c2ccc(Cl)cc2)c1 [Compound 10d, 3-(5-(4-chlorophenyl)-4-(phenylsulphonyl)-1H-1,2,3-triazol-1-yl)benzenesulphonamide]
Ki (hCA I; [2]): 696 nM | Ki (hCA IV): 91.8 nM | melting point: 123 to 125 °C | viability at 6 h, 10 µM [1]: 32 ± 6.92% | Ki (hCA IX): 16.4 nM | Selectivity index I/IX (hCA IX): 42.42 | Selectivity index II/IX (hCA IX): 3.56 | percent apoptosis (testicular cells): 35.00 ± 1.15% | Ki (hCA II): 58.4 nM

COc1ccc(-c2c(S(=O)(=O)c3ccccc3)nnn2-c2cccc(S(N)(=O)=O)c2)cc1Br [Compound 10h, 3-(5-(3-bromo-4-methoxyphenyl)-4-(phenylsulphonyl)-1H-1,2,3-triazol-1-yl)benzenesulphonamide]
Ki (hCA I): 8030 nM | Ki (hCA I; [2]): 8030 nM | Ki (hCA IV): 6050 nM | melting point: 231 to 233 °C | viability at 6 h, 10 µM [1]: 46.7 ± 4.8% | Ki (hCA IX): 22.8 nM | selectivity for hCA IX over hCA I (hCA IX): more than 100 fold | Selectivity index I/IX (hCA IX): 352.32 | Selectivity index II/IX (hCA IX): 28.45 | percent apoptosis (testicular cells): 29.33 ± 1.45% | Ki (hCA II): 649 nM
